Data: patent publication US9604989B2, “Imidazopyridazines as Akt kinase inhibitors” (Bayer Intellectual Property GmbH, priority 2011, dated 2017)

How the values were obtained:
phospho-AKT at S473 = test: Cellular p-AKT1/2/3-S473 assay in KPL-4 cells; format: cell-based; settings: Homo sapiens, KPL4; KPL-4 breast tumour cell line, compound treatment 2 hours; read-out: pAKT-S473 median IC50
Procedure: (§1) The molecular mechanism of action was investigated in a set of experiments to assess the inhibition of the PI3K-AKT-mTOR pathway in responsive cell lines such as KPL-4 breast tumour cell line (PIK3CA^H1047R, HER2^O/E and hormone independent). The phospho-substrates of PI3K-AKT-mTOR axis were used as the read-outs to reflect pathway inhibition. Cells were seeded at 60-80% confluency per well in 96-well cell culture plates. After overnight incubation at 37° C. 5% CO2, cells were treated with compounds and vehicle at 37° C. for 2 hours. […] All measurements where at least done in duplicates and confirmed by independent repetition.
Alternatively pAKT-S473 was measured using the “Akt Duplex” of the MULTI-SPOT® Assay System (Fa. Meso Scale Discovery, Cat#N41100B-1) following manufacturers instructions. Each assay used 20 μg of protein extract and measured total AKT and p-AKT content simultaneously in one well. All measurements where at least done in duplicates and confirmed by independent repetition. Values for P-AKT are expressed as percentage of P-AKT level compared to total-AKT content of the extracts.

[1] = molecular target: His-tagged human recombinant kinase full-length Akt2 (Homo sapiens (Human), UniProt P31751); test: Akt2 kinase assay (Akt2 TR-FRET assay); format: biochemical; settings: 10 μM ATP, 60 min at 22° C., read-out: Akt2 median IC50
Chain of His-tagged human recombinant kinase full-length Akt2 (P31751 whole entry): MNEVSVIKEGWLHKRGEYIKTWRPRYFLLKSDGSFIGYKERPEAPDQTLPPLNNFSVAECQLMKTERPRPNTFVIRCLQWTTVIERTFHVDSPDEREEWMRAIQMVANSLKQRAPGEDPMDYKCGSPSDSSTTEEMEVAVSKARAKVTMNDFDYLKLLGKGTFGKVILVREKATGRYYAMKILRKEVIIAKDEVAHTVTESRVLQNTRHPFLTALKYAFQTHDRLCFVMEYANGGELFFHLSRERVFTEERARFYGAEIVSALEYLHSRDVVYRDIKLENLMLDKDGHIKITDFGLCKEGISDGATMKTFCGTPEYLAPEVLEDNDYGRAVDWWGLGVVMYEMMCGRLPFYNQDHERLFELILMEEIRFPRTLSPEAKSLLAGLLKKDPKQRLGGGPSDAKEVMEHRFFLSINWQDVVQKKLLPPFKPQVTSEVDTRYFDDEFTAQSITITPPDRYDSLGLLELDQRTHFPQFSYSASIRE
Source text: Akt2 inhibitory activity of compounds of the present invention was quantified employing the Akt2 TR-FRET assay as described in the following paragraphs.
His-tagged human recombinant kinase full-length Akt2 expressed in insect cells and activated by PDK1 was purchased form Invitrogen (part number PV 3975). As substrate for the kinase reaction the biotinylated peptide biotin-Ahx-[sequence] (C-terminus in amide form) was used which can be purchased e.g. from the company Biosynthan GmbH (Berlin-Buch, Germany). For the assay 50 nl of a 100 fold concentrated solution of the test compound in DMSO was pipetted into a black low volume 384 well microtiter plate (Greiner Bio-One, Frickenhausen, Germany), 2 μl of a solution of Akt2 in assay buffer [50 mM TRIS/HCl pH 7.5, 5 mM MgCl2, 1 mM dithiothreitol, 0.02% (v/v) Triton X-100 (Sigma)] were added and the mixture was incubated for 15 min at 22° C. to allow pre-binding of the test compounds to the enzyme before the start of the kinase reaction. Then the kinase reaction was started by the addition of 3 μl of a solution of adenosine-tri-phosphate (ATP, 16.7 μM=>final conc. in the 5 μl assay volume is 10 μM) and substrate (1.67 μM=>final conc. in the 5 μl assay volume is 1 μM) in assay buffer and the resulting mixture was incubated for a reaction time of 60 min at 22° C. The concentration of Akt2 in the assay was adjusted depending of the activity of the enzyme lot and was chosen appropriate to have the assay in the linear range, typical enzyme concentrations were in the range of about 0.2 ng/μl (final conc. in the 5 μl assay volume). The reaction was stopped by the addition of 5 μl of a solution of HTRF detection reagents (200 nM streptavidine-XL665 [Cisbio] and 1.5 nM anti-phosho-Serine antibody [Millipore, cat. #35-001] and 0.75 nM LANCE Eu-W 1024 labeled anti-mouse IgG antibody [Perkin Elmer]) in an aqueous EDTA-solution (100 mM EDTA, 0.1% (w/v) bovine serum albumin in 50 mM HEPES/NaOH pH 7.5). The resulting mixture was incubated 1 h at 22° C. to allow the binding of the biotinylated phosphorylated peptide to the streptavidine-XL665 and the antibodies. Subsequently the amount of phosphorylated substrate was evaluated by measurement of the resonance energy transfer from the anti-mouse-IgG-Eu-Chelate to the streptavidine-XL665. Therefore, the fluorescence emissions at 620 nm and 665 nm after excitation at 350 nm was measured in a TR-FRET reader, e.g. a Rubystar (BMG Labtechnologies, Offenburg, Germany) or a Viewlux (Perkin-Elmer). The ratio of the emissions at 665 nm and at 622 nm was taken as the measure for the amount of phosphorylated substrate.

[2] = test system: KPL-4 breast cancer cell line; test: Tumor cell proliferation assay (CellTiter-Glo), KPL-4; format: cell-based; settings: Homo sapiens, KPL4, 72 h drug exposure, read-out: KLP-4 median IC50
Procedure: Biological Assay 4.0: Tumor Cell Proliferation Assays
Compounds were tested in a cell-based assay that measures the capacity of the compounds to inhibit tumour cell proliferation following a 72 h drug exposure. Cell viability is determined using CellTiter-Glow® (CTG, Promega, cat#G7571/2/3). The CellTiter-Glo® Luminescent Cell Viability Assay is a homogeneous method to determine the number of viable cells in culture.
Detection is based on using the luciferase reaction to measure the amount of ATP from viable cells. The amount of ATP in cells correlates with cell viability. Within minutes after a loss of membrane integrity, cells lose the ability to synthesize ATP, and endogenous ATPases destroy any remaining ATP; thus the levels of ATP fall precipitously.
For each cell line assayed, cells were plated onto a separate plate for determination of fluorescence at t=0 hour and t=72 hour time points. Following overnight incubation at 37° C., chemiluminescence values for the t=0 samples were determined after adding 10 μl medium and 100 μl CTG solution according to manufacture protocol. Plates for the t=72 hour time points were treated with compounds diluted into growth medium at ten times final concentration added in 10 μL to the cell culture plate. Cells were then incubated for 72 hours at 37° C. Chemiluminescence values for the t=72 hour samples were determined. […] Experiments were controlled using a reference compound as standard.

[3] = test system: MCF-7 breast tumour cell line; test: Tumor cell proliferation assay (CellTiter-Glo), MCF-7; format: cell-based; settings: Homo sapiens, MCF7, 72 h drug exposure, read-out: MCF-7 median IC50
[4] = molecular target: His-tagged human recombinant kinase full-length Akt1 (Homo sapiens (Human), UniProt P31749); test: Akt1 kinase assay (Akt1 TR-FRET assay); format: biochemical; settings: 10 μM ATP, 60 min at 22° C., read-out: Akt1 median IC50
Chain of His-tagged human recombinant kinase full-length Akt1 (P31749 whole entry): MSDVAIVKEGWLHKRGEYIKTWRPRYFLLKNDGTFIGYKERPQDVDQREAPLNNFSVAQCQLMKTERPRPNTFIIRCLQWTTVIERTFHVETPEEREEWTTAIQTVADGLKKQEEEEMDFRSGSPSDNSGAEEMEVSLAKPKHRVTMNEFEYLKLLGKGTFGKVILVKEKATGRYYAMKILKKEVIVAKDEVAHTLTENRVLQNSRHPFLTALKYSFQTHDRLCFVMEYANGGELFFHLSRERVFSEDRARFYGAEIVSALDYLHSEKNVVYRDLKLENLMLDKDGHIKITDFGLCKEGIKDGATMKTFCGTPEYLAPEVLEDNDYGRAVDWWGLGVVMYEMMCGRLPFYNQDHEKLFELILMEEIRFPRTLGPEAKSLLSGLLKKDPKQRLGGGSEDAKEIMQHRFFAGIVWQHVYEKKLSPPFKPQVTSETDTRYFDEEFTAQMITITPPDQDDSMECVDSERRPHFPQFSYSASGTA
Source text: Biological Assay 1.0: Akt1 Kinase Assay
Akt1 inhibitory activity of compounds of the present invention was quantified employing the Akt1 TR-FRET assay as described in the following paragraphs.
His-tagged human recombinant kinase full-length Akt1 expressed in insect cells was purchased form Invitrogen (part number PV 3599). As substrate for the kinase reaction the biotinylated peptide biotin-Ahx-[sequence] (C-terminus in amide form) was used which can be purchased e.g. from the company Biosynthan GmbH (Berlin-Buch, Germany).
For the assay 50 nl of a 100 fold concentrated solution of the test compound in DMSO was pipetted into a black low volume 384 well microtiter plate (Greiner Bio-One, Frickenhausen, Germany), 2 μl of a solution of Akt1 in assay buffer [50 mM TRIS/HCl pH 7.5, 5 mM MgCl2, 1 mM dithiothreitol, 0.02% (v/v) Triton X-100 (Sigma)] were added and the mixture was incubated for 15 min at 22° C. to allow pre-binding of the test compounds to the enzyme before the start of the kinase reaction. Then the kinase reaction was started by the addition of 3 μl of a solution of adenosine-tri-phosphate (ATP, 16.7 μM=>final conc. in the 5 μl assay volume is 10 μM) and substrate (1.67 μM=>final conc. in the 5 μl assay volume is 1 μM) in assay buffer and the resulting mixture was incubated for a reaction time of 60 min at 22° C. The concentration of Akt1 in the assay was adjusted depending of the activity of the enzyme lot and was chosen appropriate to have the assay in the linear range, typical enzyme concentrations were in the range of about 0.05 ng/μl (final conc. in the 5 μl assay volume). The reaction was stopped by the addition of 5 μl of a solution of HTRF detection reagents (200 nM streptavidine-XL665 [Cisbio] and 1.5 nM anti-phosho-Serine antibody [Millipore, cat. #35-001] and 0.75 nM LANCE Eu-W 1024 labeled anti-mouse IgG antibody [Perkin Elmer]) in an aqueous EDTA-solution (100 mM EDTA, 0.1% (w/v) bovine serum albumin in 50 mM HEPES/NaOH pH 7.5). The resulting mixture was incubated 1 h at 22° C. to allow the binding of the biotinylated phosphorylated peptide to the streptavidine-XL665 and the antibodies. Subsequently the amount of phosphorylated substrate was evaluated by measurement of the resonance energy transfer from the anti-mouse-IgG-Eu-Chelate to the streptavidine-XL665. Therefore, the fluorescence emissions at 620 nm and 665 nm after excitation at 350 nm was measured in a HTRF reader, e.g. a Rubystar (BMG Labtechnologies, Offenburg, Germany) or a Viewlux (Perkin-Elmer). The ratio of the emissions at 665 nm and at 622 nm was taken as the measure for the amount of phosphorylated substrate.

p-4E-BP1 at T70 = test: Cellular p-4E-BP1-T70 assay in KPL-4 cells; format: cell-based; settings: Homo sapiens, KPL4; KPL-4 breast tumour cell line, compound treatment 2 hours; read-out: P4EBP1-T70 median IC50
Procedure: as §1

SMILES	IC50 (phospho-AKT at S473) [µM]	IC50 [1] [µM]	IC50 [2] [µM]	IC50 [3] [µM]	IC50 [4] [µM]	IC50 (p-4E-BP1 at T70) [µM]
CCOc1cc(C(N)=O)nn2c(-c3ccccc3)c(-c3ccc(C4(N)CCC4)cc3)nc12 [Example 61, 2-[4-(1-Aminocyclobutyl)phenyl]-8-ethoxy-3-phenylimidazo[1,2-b]pyridazine-6-carboxamide]	0.0005	0.0037	0.033	0.056	0.0041	0.002
Cc1c(C(N)=O)nn2c(-c3ccccc3)c(-c3ccc(C4(N)CCC4)cc3)nc2c1C [Example 52, 2-[4-(1-Aminocyclobutyl)phenyl]-7,8-dimethyl-3-phenylimidazo[1,2-b]-pyridazine-6-carboxamide]	0.0021	0.015	0.14	0.11	0.026	0.0099
CS(=O)(=O)Nc1ccc2nc(-c3ccc(C4(N)CCC4)cc3)c(-c3ccccc3)n2n1 [Example 45, N-{2-[4-(1-Aminocyclobutyl)phenyl]-3-phenylimidazo[1,2-b]pyridazin-6-yl} methanesulfonamide]	> 10	6.6	> 10	> 10	1.2	> 10
COC(=O)c1ccc2nc(-c3ccc(C4(N)CCC4)cc3)c(-c3ccccc3)n2n1 [Example 39, Methyl 2-[4-(1-aminocyclobutyl)phenyl]-3-phenylimidazo[1,2-b]pyridazine-6-carboxylate]	0.28	0.16	> 10	6.1	0.038	7.5
C=Cc1cc(OC)c2nc(-c3ccc(C4(N)CCC4)cc3)c(-c3ccccc3)n2n1 [Example 18, 1-[4-(8-Methoxy-3-phenyl-6-vinylimidazo[1,2-b]pyridazin-2-yl)phenyl]-cyclobutanamine]	0.18	0.053	1.6	1.1	0.086	0.71
CCOc1cc(C(=O)OC)nn2c(-c3ccccc3)c(-c3ccc(C4(N)CCC4)cc3)nc12 [Example 57, Methyl 2-[4-(1-aminocyclobutyl)phenyl]-8-ethoxy-3-phenylimidazo[1,2-b]pyridazine-6-carboxylate]	0.25	0.029	9.4	2.1	0.025	1.8
NC1(c2ccc(-c3nc4c(-c5cc[nH]n5)cc(C(=O)NCCO)nn4c3-c3ccccc3)cc2)CCC1 [Example 71, 2-[4-(1-Aminocyclobutyl)phenyl]-N-(2-hydroxyethyl)-3-phenyl-8-(1H-pyrazol-3-yl)imidazo[1,2-b]pyridazine-6-carboxamide]	0.092	0.02	2	0.78	0.011	10
COC(=O)CCc1ccnn2c(-c3ccccc3)c(-c3ccc(C4(N)CCC4)cc3)nc12 [Example 72, Methyl 3-{2-[4-(1-aminocyclobutyl)phenyl]-3-phenylimidazo[1,2-b]pyridazin-8-yl}propanoate]	1	0.58	2.2	3	0.31	0.59
COc1nn2c(-c3ccccc3)c(-c3ccc(C4(N)CCC4)cc3)nc2c(C)c1C [Example 53, 1-[4-(6-Methoxy-7,8-dimethyl-3-phenylimidazo[1,2-b]pyridazin-2-yl)phenyl]-cyclobutanamine]	0.2	0.0024	1.7	0.87	0.0092	1
NC1(c2ccc(-c3nc4ccc(Br)nn4c3-c3ccccc3)cc2)CCC1 [Example 41, 1-[4-(6-Bromo-3-phenylimidazo[1,2-b]pyridazin-2-yl)phenyl]cyclobutanamine]	> 10	0.066	> 10	> 10	0.033	> 10
CCCCOc1cc(OCC)nn2c(-c3ccccc3)c(-c3ccc(C4(N)CCC4)cc3)nc12 [Example 77, 1-[4-(8-Butoxy-6-ethoxy-3-phenylimidazo[1,2-b]pyridazin-2-yl)phenyl]-cyclobutanamine]	0.46	0.061	1.9	1.7	0.01	1.4
Cc1ccc2nc(-c3ccc(C4(N)CCC4)cc3)c(-c3ccccc3)n2n1 [Example 1, 1-[4-(6-Methyl-3-phenylimidazo[1,2-b]pyridazin-2-yl)phenyl]cyclobutanamine]	0.16	0.38	1.8	0.6	0.17	
CCOc1ccc2nc(-c3ccc(C4(N)CCC4)cc3)c(-c3ccccc3)n2n1 [Example 78, 1-[4-(6-Ethoxy-3-phenylimidazo[1,2-b]pyridazin-2-yl)phenyl]cyclobutanamine]	0.092	0.23			0.032	0.58
CNC(=O)c1cc(OCC2CC2)c2nc(-c3ccc(C4(N)CCC4)cc3)c(-c3ccccc3)n2n1 [Example 64, 2-[4-(1-Aminocyclobutyl)phenyl]-8-(cyclopropylmethoxy)-N-methyl-3-phenylimidazo[1,2-b]pyridazine-6-carboxamide]	0.0009	0.012	0.36	0.15		0.084

Other lines, results leading:

IC50 (phospho-AKT at S473) [µM]	IC50 [1] [µM]	IC50 [2] [µM]	IC50 [3] [µM]	IC50 [4] [µM]	IC50 (p-4E-BP1 at T70) [µM]	SMILES
0.21	0.078	2	1.7	0.056	1.3	NC1(c2ccc(-c3nc4c(OCc5ccccc5)cc(Cl)nn4c3-c3ccccc3)cc2)CCC1 [Example 29, 1-{4-[8-(Benzyloxy)-6-chloro-3-phenylimidazo[1,2-b]pyridazin-2-yl]phenyl}cyclobutanamine]
0.39	0.042	2	1.8	0.015	5.1	NC1(c2ccc(-c3nc4c(-c5cc[nH]n5)cc(Cl)nn4c3-c3ccccc3)cc2)CCC1 [Example 19, 1-{4-[6-Chloro-3-phenyl-8-(1H-pyrazol-3-yl)imidazo[1,2-b]pyridazin-2-yl]phenyl} cyclobutanamine]
0.0004	0.062			0.016	0.035	CNC(=O)c1cc(-c2ncc[nH]2)c2nc(-c3ccc(C4(N)CCC4)cc3)c(-c3ccccc3)n2n1 [Example 62, 2-[4-(1-Aminocyclobutyl)phenyl]-8-(1H-imidazol-2-yl)-N-methyl-3-phenylimidazo[1,2-b]pyridazine-6-carboxamide]
0.012	0.092			0.043	0.43	NC1(c2ccc(-c3nc4ccc(Cl)nn4c3-c3ccccc3)cc2)CCC1 [Example 17, 1-[4-(6-Chloro-3-phenylimidazo[1,2-b]pyridazin-2-yl)phenyl]cyclobutanamine]
0.69	0.035	0.74	1.8	0.012	1.6	CSc1nn2c(-c3ccccc3)c(-c3ccc(C4(N)CCC4)cc3)nc2c(C)c1C [Example 54, 1-{4-[7,8-Dimethyl-6-(methylsulfanyl)-3-phenylimidazo[1,2-b]pyridazin-2-yl]-phenyl}cyclobutanamine]
1.4	0.19	2.2	2.1	1.2	2.9	Cn1nccc1-c1cc(Cl)nn2c(-c3ccccc3)c(-c3ccc(C4(N)CCC4)cc3)nc12 [Example 23, 1-{4-[6-Chloro-8-(1-methyl-1H-pyrazol-5-yl)-3-phenylimidazo[1,2-b]pyridazin-2-yl]phenyl} cyclobutanamine]
0.0014	0.0026	0.47	0.28	0.0031	0.022	CNC(=O)c1cc(-c2cc[nH]n2)c2nc(-c3ccc(C4(N)CCC4)cc3)c(-c3ccccc3)n2n1 [Example 65, 2-[4-(1-Aminocyclobutyl)phenyl]-N-methyl-3-phenyl-8-(1H-pyrazol-3-yl)imidazo[1,2-b]pyridazine-6-carboxamide]
0.57	0.016	8.2	1.1	0.0066	0.36	COC(=O)c1cc(-c2cc[nH]n2)c2nc(-c3ccc(C4(N)CCC4)cc3)c(-c3ccccc3)n2n1 [Example 56, Methyl 2-[4-(1-aminocyclobutyl)phenyl]-3-phenyl-8-(1H-pyrazol-3-yl)-imidazo[1,2-b]pyridazine-6-carboxylate]
0.45	0.027	1.7	1.8	0.044	2	Cc1c(Cl)nn2c(-c3ccccc3)c(-c3ccc(C4(N)CCC4)cc3)nc2c1C [Example 50, 1-[4-(6-Chloro-7,8-dimethyl-3-phenylimidazo[1,2-b]pyridazin-2-yl)phenyl]-cyclobutanamine]
> 10	0.096			0.058	> 10	NC1(c2ccc(-c3nc4c(-c5cc[nH]n5)cc(C(=O)O)nn4c3-c3ccccc3)cc2)CCC1 [Example 67, 2-[4-(1-Aminocyclobutyl)phenyl]-3-phenyl-8-(1H-pyrazol-3-yl)imidazo[1,2-b]-pyridazine-6-carboxylic acid]
